According to patent US20230310428A1, “EGFR INHIBITOR AND PREPARATION METHOD AND USE THEREOF” (HONGYUN BIOTECH CO., LTD., priority 2020, published 2023):

Columns and labels:
Assay in all cases: Growth inhibitory activity of compounds on BaF3 cell lines stably transfected with kinase (MTS, 48 h)
Type in all cases: cell-based
[1] = target: T1, various mutants of kinase EGFR (BaF3 cell lines stably transfected with kinase) (Homo sapiens, UniProt P00533, C797S/L858R/T790M); details: BaF3 cells stably transfected with EGFR L858R/T790M/C797S, read-out: IC50, growth inhibition, L858R/T790M/C797S
T1 construct: expressed in transfected cells; host or cells: BaF3
Description: (§1) The activity of compounds against various mutants of kinase EGFR was evaluated by their effect of inhibiting growth of BaF3 cell lines stably transfected with kinase. The specific test method was given as follows:
(§2) 1) Culture medium: DMEM (Dulbecco’s modified eagle medium) or RPMI 1640 (containing 10% fetal bovine serum, 100 µg/mL ampicillin, 100 µg/mL streptomycin).
(§3) 2) Reagent: MTS reaction solution (containing 2 mg/mL of MTS [3-(4,5-dimethylthiazol-2-yl)-5-(3-carboxymethoxyphenyl)-2-(4-sulfophenyl)-2H-tetrazoliu m, inner Salt]; 100 µg/mL of PES ([…])).
(§4) 3) Compound test: cells were incubated into a 96-well culture plate, the volume of cytosol was 90 µL, and then 10 µL of the compound at each gradient concentration was added. That is, the highest concentration was 10 µM, which was diluted stepwise by ⅓, and 8 concentration points were set in total; 0.1% DMSO (dimethyl sulfoxide) was contained in the system. The cell plate with uniformly mixed compound was cultured in a cell culture incubator (37° C.; 5% CO2) for 48 h, then 20 µL of MTS reaction solution was added, uniformly mixed and incubated in the cell culture incubator (37° C.; 5% CO2) for 1-4 h. OD values at 490 nm were measured by a microplate reader (VARIOSKAN FLASH, Thermo). Two parallels were set in each group of experiments, with 0.1% (a final concentration) DMSO as a negative control, and a culture medium without cells and compounds as a blank control. The cell growth inhibition rate was calculated by the following formula: […]
(§5) 4) IC50 calculation: The semi-inhibitory concentration of the compounds acting on cells was calculated using GradPad Prism 5 software according to the measured cell growth inhibition rate.

[2] = target: T2, various mutants of kinase EGFR (BaF3 cell lines stably transfected with kinase) (Homo sapiens, UniProt P00533, T790M, form not given); details: BaF3 cells stably transfected with EGFR Δ19Del/T790M, read-out: IC50, growth inhibition, Δ19Del/T790M
T2 construct: other: BaF3 cells stably transfected with EGFR Δ19Del/T790M; MTS, 48 h; other: BaF3 cell line stably transfected with EGFR Δ19Del/T790M; MTS, 48
Description: as §1, §2, §3, §4, §5

[3] = target: T3, various mutants of kinase EGFR (BaF3 cell lines stably transfected with kinase) (Homo sapiens, UniProt P00533, T790M/C797S, form not given); details: BaF3 cells stably transfected with EGFR Δ19Del/T790M/C797S, read-out: IC50, growth inhibition, Δ19Del/T790M/C797S
T3 construct: other: BaF3 cells stably transfected with EGFR Δ19Del/T790M/C797S; MTS, 48; other: BaF3 cell line stably transfected with EGFR Δ19Del/T790M/C7
Description: as §1, §2, §3, §4, §5

[4] = target: T4, various mutants of kinase EGFR (BaF3 cell lines stably transfected with kinase) (Homo sapiens, UniProt P00533); details: BaF3 cells stably transfected with EGFR Δ19Del, read-out: IC50, growth inhibition, Δ19Del
T4 construct: other: BaF3 cells stably transfected with EGFR Δ19Del; MTS, 48 h; other: BaF3 cell line stably transfected with EGFR Δ19Del
Description: as §1, §2, §3, §4, §5

[5] = target: T5, various mutants of kinase EGFR (BaF3 cell lines stably transfected with kinase) (Homo sapiens, UniProt P00533, L858R); details: BaF3 cells stably transfected with EGFR L858R, read-out: IC50, growth inhibition, L858R
T5 construct: expressed in transfected cells; host or cells: BaF3
Description: as §1, §2, §3, §4, §5

[6] = target: T6, various mutants of kinase EGFR (BaF3 cell lines stably transfected with kinase) (Homo sapiens, UniProt P00533, L858R/T790M); details: BaF3 cells stably transfected with EGFR L858R/T790M, read-out: IC50, growth inhibition, L858R/T790M
T6 construct: expressed in transfected cells; host or cells: BaF3
Description: as §1, §2, §3, §4, §5

T3 sequence (P00533 with tags, fused parts or gaps DEL746-750/T790M/C797S, form open): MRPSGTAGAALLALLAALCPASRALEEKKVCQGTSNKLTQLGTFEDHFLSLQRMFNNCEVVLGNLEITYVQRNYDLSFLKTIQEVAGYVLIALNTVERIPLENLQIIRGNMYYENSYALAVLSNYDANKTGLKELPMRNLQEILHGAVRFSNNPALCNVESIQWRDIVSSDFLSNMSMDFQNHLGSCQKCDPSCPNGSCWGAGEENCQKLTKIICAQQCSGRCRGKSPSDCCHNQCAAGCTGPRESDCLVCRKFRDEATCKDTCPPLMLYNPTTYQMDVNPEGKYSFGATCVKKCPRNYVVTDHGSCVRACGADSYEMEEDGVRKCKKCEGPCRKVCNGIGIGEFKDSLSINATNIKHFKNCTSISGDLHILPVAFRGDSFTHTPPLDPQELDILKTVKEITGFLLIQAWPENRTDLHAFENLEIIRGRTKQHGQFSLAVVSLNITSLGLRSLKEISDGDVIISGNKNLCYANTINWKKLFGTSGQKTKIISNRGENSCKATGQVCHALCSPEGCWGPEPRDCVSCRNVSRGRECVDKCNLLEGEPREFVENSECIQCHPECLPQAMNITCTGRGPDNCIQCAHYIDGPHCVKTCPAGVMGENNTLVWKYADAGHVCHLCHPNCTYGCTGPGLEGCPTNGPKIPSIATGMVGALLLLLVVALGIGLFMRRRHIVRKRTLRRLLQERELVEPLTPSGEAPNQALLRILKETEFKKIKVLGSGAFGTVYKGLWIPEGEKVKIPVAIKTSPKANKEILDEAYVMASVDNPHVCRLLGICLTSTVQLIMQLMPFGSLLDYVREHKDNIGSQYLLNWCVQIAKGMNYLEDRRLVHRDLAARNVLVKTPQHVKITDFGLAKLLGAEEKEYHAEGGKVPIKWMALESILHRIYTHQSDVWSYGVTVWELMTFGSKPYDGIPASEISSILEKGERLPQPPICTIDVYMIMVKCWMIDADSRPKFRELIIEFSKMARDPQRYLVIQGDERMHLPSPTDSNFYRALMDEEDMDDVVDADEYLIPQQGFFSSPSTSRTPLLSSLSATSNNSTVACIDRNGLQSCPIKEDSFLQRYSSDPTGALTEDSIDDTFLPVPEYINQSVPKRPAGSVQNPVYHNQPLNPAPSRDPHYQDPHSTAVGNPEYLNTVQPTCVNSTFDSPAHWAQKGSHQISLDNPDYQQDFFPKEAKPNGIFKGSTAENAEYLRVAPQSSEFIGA
T2 sequence (P00533 with tags, fused parts or gaps DEL746-750/T790M, form open): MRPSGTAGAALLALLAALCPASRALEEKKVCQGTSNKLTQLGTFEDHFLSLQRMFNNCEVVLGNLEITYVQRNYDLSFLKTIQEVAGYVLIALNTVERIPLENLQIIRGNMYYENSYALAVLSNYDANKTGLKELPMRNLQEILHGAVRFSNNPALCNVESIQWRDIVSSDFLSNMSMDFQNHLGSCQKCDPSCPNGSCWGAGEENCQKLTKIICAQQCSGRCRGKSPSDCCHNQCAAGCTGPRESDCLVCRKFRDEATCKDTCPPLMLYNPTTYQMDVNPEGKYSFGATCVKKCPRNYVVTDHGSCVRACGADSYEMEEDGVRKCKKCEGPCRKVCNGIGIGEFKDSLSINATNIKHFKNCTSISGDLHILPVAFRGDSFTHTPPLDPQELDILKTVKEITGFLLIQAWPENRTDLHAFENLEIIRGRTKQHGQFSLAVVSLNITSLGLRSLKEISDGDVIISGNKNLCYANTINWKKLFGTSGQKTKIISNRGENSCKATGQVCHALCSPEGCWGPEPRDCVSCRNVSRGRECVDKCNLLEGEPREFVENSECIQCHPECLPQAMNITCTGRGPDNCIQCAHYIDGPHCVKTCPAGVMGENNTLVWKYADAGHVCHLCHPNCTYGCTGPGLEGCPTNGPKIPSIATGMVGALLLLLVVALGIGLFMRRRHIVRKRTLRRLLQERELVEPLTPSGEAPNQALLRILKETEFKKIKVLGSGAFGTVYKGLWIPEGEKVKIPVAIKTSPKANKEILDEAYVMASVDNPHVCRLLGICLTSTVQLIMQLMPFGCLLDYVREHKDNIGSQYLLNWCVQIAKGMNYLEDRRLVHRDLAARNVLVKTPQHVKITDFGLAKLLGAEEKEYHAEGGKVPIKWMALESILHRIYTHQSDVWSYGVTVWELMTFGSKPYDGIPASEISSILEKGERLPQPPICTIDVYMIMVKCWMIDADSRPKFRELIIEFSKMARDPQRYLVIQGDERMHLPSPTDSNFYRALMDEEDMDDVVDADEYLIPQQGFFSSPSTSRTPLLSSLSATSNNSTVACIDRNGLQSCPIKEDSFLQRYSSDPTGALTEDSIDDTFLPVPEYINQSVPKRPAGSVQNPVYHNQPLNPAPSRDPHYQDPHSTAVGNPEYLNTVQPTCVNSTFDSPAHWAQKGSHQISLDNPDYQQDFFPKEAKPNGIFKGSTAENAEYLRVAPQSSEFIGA
T6 sequence (P00533 25-1210 T790M/L858R): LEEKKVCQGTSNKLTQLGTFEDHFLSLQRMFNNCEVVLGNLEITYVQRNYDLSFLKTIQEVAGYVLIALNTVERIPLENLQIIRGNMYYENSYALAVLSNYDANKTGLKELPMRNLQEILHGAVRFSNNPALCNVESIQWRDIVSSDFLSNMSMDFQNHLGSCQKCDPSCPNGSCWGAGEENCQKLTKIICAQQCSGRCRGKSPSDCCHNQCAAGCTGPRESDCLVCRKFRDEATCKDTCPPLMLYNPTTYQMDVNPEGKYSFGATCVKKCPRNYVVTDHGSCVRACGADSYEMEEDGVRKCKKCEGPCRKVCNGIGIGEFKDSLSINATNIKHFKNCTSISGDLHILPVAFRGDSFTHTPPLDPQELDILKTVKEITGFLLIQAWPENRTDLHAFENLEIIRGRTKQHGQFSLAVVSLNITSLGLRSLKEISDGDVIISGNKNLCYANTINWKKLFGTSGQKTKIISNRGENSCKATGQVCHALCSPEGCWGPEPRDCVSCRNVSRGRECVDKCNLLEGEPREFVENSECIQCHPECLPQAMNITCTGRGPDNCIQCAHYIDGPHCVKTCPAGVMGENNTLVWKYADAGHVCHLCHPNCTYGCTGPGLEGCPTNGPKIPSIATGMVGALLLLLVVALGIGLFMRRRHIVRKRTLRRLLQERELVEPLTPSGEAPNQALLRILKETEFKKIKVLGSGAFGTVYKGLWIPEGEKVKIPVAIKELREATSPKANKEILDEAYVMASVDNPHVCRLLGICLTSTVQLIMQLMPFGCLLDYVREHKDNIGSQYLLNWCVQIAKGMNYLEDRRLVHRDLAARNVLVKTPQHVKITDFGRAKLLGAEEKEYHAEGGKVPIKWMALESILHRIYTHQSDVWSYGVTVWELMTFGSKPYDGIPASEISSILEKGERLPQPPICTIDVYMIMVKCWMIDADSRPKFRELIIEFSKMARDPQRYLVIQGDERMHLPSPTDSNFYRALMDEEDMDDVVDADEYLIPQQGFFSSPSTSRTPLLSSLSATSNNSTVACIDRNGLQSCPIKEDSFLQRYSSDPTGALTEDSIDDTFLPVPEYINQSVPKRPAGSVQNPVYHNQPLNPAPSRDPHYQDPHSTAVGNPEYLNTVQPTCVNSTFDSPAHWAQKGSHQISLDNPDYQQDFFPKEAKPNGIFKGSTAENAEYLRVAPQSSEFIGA
T1 sequence (P00533 25-1210 T790M/C797S/L858R): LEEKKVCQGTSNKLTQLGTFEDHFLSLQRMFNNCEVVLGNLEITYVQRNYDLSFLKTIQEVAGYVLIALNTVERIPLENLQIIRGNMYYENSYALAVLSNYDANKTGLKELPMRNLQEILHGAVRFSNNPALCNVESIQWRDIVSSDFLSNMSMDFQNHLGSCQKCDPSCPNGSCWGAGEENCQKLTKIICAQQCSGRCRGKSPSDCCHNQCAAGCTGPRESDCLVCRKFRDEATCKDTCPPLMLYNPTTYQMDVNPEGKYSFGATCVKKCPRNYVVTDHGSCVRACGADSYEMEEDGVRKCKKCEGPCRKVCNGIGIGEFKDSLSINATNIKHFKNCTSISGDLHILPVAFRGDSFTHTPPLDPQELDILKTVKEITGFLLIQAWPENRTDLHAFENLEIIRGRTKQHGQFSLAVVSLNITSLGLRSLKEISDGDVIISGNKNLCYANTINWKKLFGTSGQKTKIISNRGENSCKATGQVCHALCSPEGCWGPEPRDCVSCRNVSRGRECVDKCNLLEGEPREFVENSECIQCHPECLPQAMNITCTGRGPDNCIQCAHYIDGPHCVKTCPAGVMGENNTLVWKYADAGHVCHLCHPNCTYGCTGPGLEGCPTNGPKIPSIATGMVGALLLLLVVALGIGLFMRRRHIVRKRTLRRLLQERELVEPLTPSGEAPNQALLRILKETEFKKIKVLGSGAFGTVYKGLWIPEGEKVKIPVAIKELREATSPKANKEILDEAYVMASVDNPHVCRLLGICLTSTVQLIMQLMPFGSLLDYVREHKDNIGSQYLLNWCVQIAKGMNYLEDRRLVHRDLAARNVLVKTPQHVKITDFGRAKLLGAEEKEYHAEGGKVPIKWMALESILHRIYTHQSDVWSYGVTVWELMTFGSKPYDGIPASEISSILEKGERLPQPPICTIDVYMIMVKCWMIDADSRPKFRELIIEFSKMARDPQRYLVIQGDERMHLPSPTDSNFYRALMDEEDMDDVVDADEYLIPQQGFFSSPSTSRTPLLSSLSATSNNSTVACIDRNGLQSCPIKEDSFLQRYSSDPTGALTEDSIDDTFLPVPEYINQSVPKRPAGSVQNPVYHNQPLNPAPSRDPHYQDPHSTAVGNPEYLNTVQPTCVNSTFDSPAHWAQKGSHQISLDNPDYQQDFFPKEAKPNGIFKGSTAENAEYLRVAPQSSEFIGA

| Structure (SMILES) | IC50 [1] | IC50 [2] | IC50 [3] | IC50 [4] | IC50 [5] | IC50 [6] |
| --- | --- | --- | --- | --- | --- | --- |
| CCc1cc(Nc2ncc(Br)c(Nc3ccc4nccnc4c3N(C)S(=O)(=O)C(F)(F)F)n2)c(OC(F)(F)F)cc1N1CCC(N2CCN(C)CC2)CC1 [Compound I-126] | 50 to 500 nM | 50 to 500 nM | 50 to 500 nM | 500 to 2500 nM | 500 to 2500 nM | 500 to 2500 nM |
| CCc1cc(Nc2ncc(Br)c(Nc3ccc4nccnc4c3N(C)S(=O)(=O)C(F)(F)F)n2)c(OC)cc1N1CCC(N(C)C)CC1 [Compound I-127] | 50 to 500 nM | 50 to 500 nM | ≤ 50 nM | 500 to 2500 nM | 500 to 2500 nM | 50 to 500 nM |
| CCc1cc(Nc2ncc(Br)c(Nc3ccc4nccnc4c3N(C)S(=O)(=O)C(F)(F)F)n2)c(OC)cc1N1CCC(N(C)C)C1 (stereo not drawn) [Compound I-128] | 50 to 500 nM | 50 to 500 nM | ≤ 50 nM | 500 to 2500 nM | 500 to 2500 nM | 50 to 500 nM |
| COc1cc(N2CCC(N3CCN(C)CC3)CC2)c(C)cc1Nc1ncc(Cl)c(Nc2ccc3nccnc3c2N(C)S(=O)(=O)C(F)(F)F)n1 [Compound I-129] | 50 to 500 nM | 50 to 500 nM | 50 to 500 nM | 500 to 2500 nM | 500 to 2500 nM | 500 to 2500 nM |
| CCc1cc(Nc2ncc(Cl)c(Nc3ccc4nccnc4c3N(C)S(=O)(=O)C(F)(F)F)n2)c(OC)cc1N1CCC(N2CCN(C)CC2)CC1 [Compound I-130] | 50 to 500 nM | ≤ 50 nM | 50 to 500 nM | 50 to 500 nM | 50 to 500 nM | 50 to 500 nM |
| CCc1cc(Nc2ncc(Cl)c(Nc3ccc4nccnc4c3N(C)S(=O)(=O)C(F)(F)F)n2)c(OC(F)(F)F)cc1N1CCC(N2CCN(C)CC2)CC1 [Compound I-131] | 50 to 500 nM | 50 to 500 nM | 50 to 500 nM | 500 to 2500 nM | 500 to 2500 nM | 500 to 2500 nM |
| CCc1cc(Nc2ncc(Cl)c(Nc3ccc4nccnc4c3N(C)S(=O)(=O)C(F)(F)F)n2)c(OC)cc1N1CCC(N(C)C)CC1 [Compound I-132] | 50 to 500 nM | 50 to 500 nM | ≤ 50 nM | 500 to 2500 nM | 500 to 2500 nM | 50 to 500 nM |
| CCc1cc(Nc2ncc(Cl)c(Nc3ccc4nccnc4c3N(C)S(=O)(=O)C(F)(F)F)n2)c(OC)cc1N1CCC(N(C)C)C1 (stereo not drawn) [Compound I-133] | 50 to 500 nM | 50 to 500 nM | ≤ 50 nM | 500 to 2500 nM | 500 to 2500 nM | 50 to 500 nM |
| COc1cc(N2CCC(N3CCN(C)CC3)CC2)c(C)cc1Nc1ncc(Br)c(Nc2ccc3nccnc3c2N(C)S(=O)(=O)C(C)C)n1 [Compound I-134] | ≤ 50 nM | ≤ 50 nM | ≤ 50 nM | 50 to 500 nM | 50 to 500 nM | ≤ 50 nM |
| CCc1cc(Nc2ncc(Br)c(Nc3ccc4nccnc4c3N(C)S(=O)(=O)C(C)C)n2)c(OC)cc1N1CCC(N2CCN(C)CC2)CC1 [Compound I-135] | ≤ 50 nM | ≤ 50 nM | ≤ 50 nM | 50 to 500 nM | 50 to 500 nM | ≤ 50 nM |
| CCc1cc(Nc2ncc(Br)c(Nc3ccc4nccnc4c3N(C)S(=O)(=O)C(C)C)n2)c(OC)cc1N1CCC(N(C)C)CC1 [Compound I-137] | ≤ 50 nM | ≤ 50 nM | ≤ 50 nM | 50 to 500 nM | ≤ 50 nM | ≤ 50 nM |
| CCc1cc(Nc2ncc(Br)c(Nc3ccc4nccnc4c3N(C)S(=O)(=O)C(C)C)n2)c(OC)cc1N1CCC(N(C)C)C1 (stereo not drawn) [Compound I-138] | 50 to 500 nM | 50 to 500 nM | ≤ 50 nM | 50 to 500 nM | 50 to 500 nM | ≤ 50 nM |
| CCc1cc(Nc2ncc(Cl)c(Nc3ccc4nccnc4c3N(C)S(=O)(=O)C(C)C)n2)c(OC)cc1N1CCC(N(C)C)CC1 [Compound I-142] | ≤ 50 nM | ≤ 50 nM | ≤ 50 nM | ≤ 50 nM | ≤ 50 nM | ≤ 50 nM |
| CCc1cc(Nc2ncc(Cl)c(Nc3ccc4nccnc4c3N(C)S(=O)(=O)C(C)C)n2)c(OC)cc1N1CCC(N(C)C)C1 (stereo not drawn) [Compound I-143] | 50 to 500 nM | ≤ 50 nM | ≤ 50 nM | 50 to 500 nM | 50 to 500 nM | 50 to 500 nM |
| COc1cc(N2CCC(N3CCN(C)CC3)CC2)c(C)cc1Nc1ncc(Br)c(Nc2ccc3nccnc3c2N(C2CC2)S(C)(=O)=O)n1 [Compound I-154] | ≤ 50 nM | ≤ 50 nM | ≤ 50 nM | ≤ 50 nM | ≤ 50 nM | ≤ 50 nM |
| CCc1cc(Nc2ncc(Br)c(Nc3ccc4nccnc4c3N(C3CC3)S(C)(=O)=O)n2)c(OC)cc1N1CCC(N2CCN(C)CC2)CC1 [Compound I-155] | ≤ 50 nM | ≤ 50 nM | ≤ 50 nM | 50 to 500 nM | ≤ 50 nM | ≤ 50 nM |
| CCc1cc(Nc2ncc(Br)c(Nc3ccc4nccnc4c3N(C3CC3)S(C)(=O)=O)n2)c(OC(F)(F)F)cc1N1CCC(N2CCN(C)CC2)CC1 [Compound I-156] | 50 to 500 nM | ≤ 50 nM | ≤ 50 nM | 50 to 500 nM | 50 to 500 nM | 50 to 500 nM |
| CCc1cc(Nc2ncc(Br)c(Nc3ccc4nccnc4c3N(C3CC3)S(C)(=O)=O)n2)c(OC)cc1N1CCC(N(C)C)CC1 [Compound I-157] | ≤ 50 nM | ≤ 50 nM | ≤ 50 nM | ≤ 50 nM | ≤ 50 nM | ≤ 50 nM |
| CCc1cc(Nc2ncc(Br)c(Nc3ccc4nccnc4c3N(C3CC3)S(C)(=O)=O)n2)c(OC)cc1N1CCC(N(C)C)C1 (stereo not drawn) [Compound I-158] | ≤ 50 nM | ≤ 50 nM | ≤ 50 nM | 50 to 500 nM | 50 to 500 nM | ≤ 50 nM |
| COc1cc(N2CCC(N3CCN(C)CC3)CC2)c(C)cc1Nc1ncc(Cl)c(Nc2ccc3nccnc3c2N(C2CC2)S(C)(=O)=O)n1 [Compound I-159] | ≤ 50 nM | ≤ 50 nM | ≤ 50 nM | ≤ 50 nM | ≤ 50 nM | ≤ 50 nM |
| CCc1cc(Nc2ncc(Cl)c(Nc3ccc4nccnc4c3N(C3CC3)S(C)(=O)=O)n2)c(OC)cc1N1CCC(N2CCN(C)CC2)CC1 [Compound I-160] | ≤ 50 nM | ≤ 50 nM | ≤ 50 nM | ≤ 50 nM | 50 to 500 nM | ≤ 50 nM |
| CCc1cc(Nc2ncc(Cl)c(Nc3ccc4nccnc4c3N(C3CC3)S(C)(=O)=O)n2)c(OC(F)(F)F)cc1N1CCC(N2CCN(C)CC2)CC1 [Compound I-161] | 50 to 500 nM | 50 to 500 nM | 50 to 500 nM | 50 to 500 nM | 50 to 500 nM | 50 to 500 nM |
| CCc1cc(Nc2ncc(Cl)c(Nc3ccc4nccnc4c3N(C3CC3)S(C)(=O)=O)n2)c(OC)cc1N1CCC(N(C)C)CC1 [Compound I-162] | ≤ 50 nM | ≤ 50 nM | ≤ 50 nM | ≤ 50 nM | ≤ 50 nM | ≤ 50 nM |
| CCc1cc(Nc2ncc(Cl)c(Nc3ccc4nccnc4c3N(C3CC3)S(C)(=O)=O)n2)c(OC)cc1N1CCC(N(C)C)C1 (stereo not drawn) [Compound I-163] | ≤ 50 nM | ≤ 50 nM | ≤ 50 nM | ≤ 50 nM | ≤ 50 nM | ≤ 50 nM |
